Patent US20220226342A1, “COMPOSITIONS AND METHODS OF TREATING LIVER CANCERS” (The Johns Hopkins University, priority 2019, published 2022)
pIC50: −log10 of the molar value.

What was measured:
[1] = system: 40 HCC PDO lines; experiment: omacetaxine dose response, IC50 across all 40 HCC PDO lines; assay type: cell-based; conditions: Homo sapiens; average of 40 HCC PDO lines; read-out: calculated average IC50 across all 40 HCC PDO lines
Protocol: FIG. 2A-2E. 10 μM drug screening and IC50 calculation across 40 PDOs from 20 HCC patients. (2A). 10 μM drug screening of omacetaxine and sorafenib, regorafenib, lenvatinib and cabozantinib on 40 PDOs derived from 20 HCC patients. X axis—the 40 PDO lines, Y axis—Cell viability. (2B). IC50 curve of 40 PDO lines, x-axis—omacetaxine dose, Y axis—Relative cell viability. (2C). […] (2D). IC50 distribution of 40 HCC PDOs. X axis—PDO lines, Y axis—IC50 number of omacetaxine for each PDO.

[2] = system: HCC 24; experiment: IC50 in PDO line; assay type: cell-based; conditions: Homo sapiens
Protocol: (§1) The inventors tested omacetaxine at decreasing concentrations (10 μM, 1 μM, 100 nM, 10 nM and 1 nM) to calculate the half-maximal inhibitory concentration (IC50). […] The IC50 value for each of the 40 HCC PDO lines can be found in Table 2.

[3] = system: HCC 25-3; experiment: IC50 in PDO line; assay type: cell-based; conditions: Homo sapiens
Protocol: as §1

[4] = system: HCC 26-2; experiment: IC50 in PDO line; assay type: cell-based; conditions: Homo sapiens
Protocol: as §1

[5] = system: HCC 26-3; experiment: IC50 in PDO line; assay type: cell-based; conditions: Homo sapiens
Protocol: as §1

[6] = system: HCC 26-6; experiment: IC50 in PDO line; assay type: cell-based; conditions: Homo sapiens
Protocol: as §1

[7] = system: HCC 30; experiment: IC50 in PDO line; assay type: cell-based; conditions: Homo sapiens
Protocol: as §1

[8] = system: HCC 35; experiment: IC50 in PDO line; assay type: cell-based; conditions: Homo sapiens
Protocol: as §1

[9] = system: HCC 40; experiment: IC50 in PDO line; assay type: cell-based; conditions: Homo sapiens
Protocol: as §1

[10] = system: HCC 67-3; experiment: IC50 in PDO line; assay type: cell-based; conditions: Homo sapiens
Protocol: as §1

[11] = system: HCC 80-5; experiment: IC50 in PDO line; assay type: cell-based; conditions: Homo sapiens
Protocol: as §1

[12] = system: HCC71-3; experiment: IC50 in PDO line; assay type: cell-based; conditions: Homo sapiens
Protocol: as §1

[13] = system: 6 HCC PDO lines; experiment: FACS analysis of BrdU incorporation (proliferation); assay type: cell-based, human
[14] = system: 6 HCC PDO lines; experiment: FACS analysis of Ki67 protein; assay type: cell-based, human; conditions: all 6 HCC PDO lines tested
Protocol: FIG. 4A-4D. Proliferation assay of HCC PDOs treated with omacetaxine in vitro. […] (4B and 4D).Ki67 expression from 6 HCC PDO lines treated with omacetaxine were analyzed with flow cytometry. […] The effects on proliferation were assessed to elucidate the omacetaxine mechanisms of action. […] To further understand the effects of omacetaxine on cancer cell proliferation and cell cycle, the inventors performed FACS analysis of Ki67 protein. Ki-67 is a nuclear protein expressed in proliferating cells (in all phases of the cell cycle except G0)^22,23. Furthermore, the higher expression of Ki67 has been linked to poorer disease free survival and overall survival in HCC^24. […] As caspase 3 is a key molecule in apoptosis, the inventors measured its activated (cleaved) fragment.

[15] = system: Cyclin D1; experiment: oncoprotein level by FACS at 96 h in 6 HCC PDO lines; assay type: cell-based, human
From the text: (§2) FIG. 3A-3H. Mechanism of Omacetaxine action on different HCC patient derived organoids lines. (3A). […] (3B). […] (3C) The mean fluorescence intensity ratio reflected protein synthesis rate of the plots data in (a). (3D-3H).
(§3) Select oncoproteins, such as MYC, beta-catenin, Cyclin D1, XIAP and MET are short half-life proteins^20, 26, 27.

[16] = system: MET; experiment: as above; assay type: cell-based, human
From the text: as §2, §3

[17] = system: MYC; experiment: as above; assay type: cell-based, human
From the text: as §2, §3

[18] = system: XIAP; experiment: as above; assay type: cell-based, human
From the text: as §2, §3

[19] = system: beta-catenin; experiment: as above; assay type: cell-based, human
From the text: as §2, §3

[20] = system: 26-3 PDX; experiment: Cleaved Caspase 3 staining of PDX tumor frozen sections; assay type: in vivo, NSG mice; conditions: omacetaxine treated HCC PDX tumors vs matched controls
From the text: (§4) FIG. 8A-8G. Omacetaxine inhibits tumor cell proliferation and increases apoptosis and suppressed HCC oncoprotein expression in vivo. (8A-8D) Immunofluorescent staining of Ki67 and cleaved caspase 3 expression in 26-3 PDX model. 8A-8B show the IF staining pictures, 8C-8D show the relative Ki67 or cleaved caspase 3 positive cell number in omacetaxine treated mice compared with control treatment groups. (8E-8G) Omacetaxine suppressed HCC oncoprotein: c-Myc, Beta-catenin and MET protein expression in 50 HCC PDX treated with Omacetaxine vs control.
To verify the mechanism of omacetaxine target HCC mechanism in vivo, omacetaxine treated HCC PDX tumors, as well as matched controls, were harvested, and frozen section slides were made. […] The difference in apoptosis as well as proliferation was statistically significant (FIGS. 8C and 8D).

[21] = system: MET; experiment: oncoprotein staining of HCC PDX tumor frozen sections; assay type: in vivo, human; conditions: HCC PDX tumor (50 HCC PDX) vs control
From the text: as §4
(§5) Tumor masses from HCC PDX mice treated with omacetaxine and negative control, respectively, were utilized to prepare frozen sections, which were then stained for the c-Myc, MET and beta-catenin.

[22] = system: beta-catenin; experiment: as above; assay type: in vivo, human; conditions: HCC PDX tumor (50 HCC PDX) vs control
From the text: as §4, §5

[23] = system: c-Myc; experiment: as above; assay type: in vivo, human; conditions: HCC PDX tumor (50 HCC PDX) vs control
From the text: as §4, §5

[24] = FDA approved dosage, cited from earlier work
[25] = system: PDX50; experiment: HCC patient derived xenograft model PDX50
From the text: P<0.001. Error bars represent Mean±standard deviation. Not significant (NS).
The second model, PDX50, was established by directly implanting pieces of the fresh human HCC tumor into NSG mice. After initial implantation, PDX50 is perpetuated similarly to PDX26-3. […] PDX50 is less aggressive—mice continue to be active, to eat and function normally, in spite of very large tumors. Therefore, PDX50 is not ideal for survival determinations.

Molecule COC(=O)C[C@](O)(CCCC(C)(C)O)C(=O)O[C@@H]1C(OC)=C[C@]23CCCN2CCc2cc4c(cc2[C@H]13)OCO4 [omacetaxine, omacetaxine mepusuccinate] has a pIC50 [1] of 7.45, a pIC50 [2] of 6.83 and a pIC50 [3] of 7.22. The pIC50 [4] was 6.93, the pIC50 [5] was 7.56 and the pIC50 [6] was 7.09. The pIC50 [7] was 7.30, the pIC50 [8] was 7.88 and the pIC50 [9] was 7.80. The pIC50 [10] was 8.78, the pIC50 [11] was 7.56 and the pIC50 [12] was 8.82. The “BrdU incorporation in newly synthetized DNA (proliferation)” value [13] was “inhibited incorporation”, the “expression of Ki67” value [14] was “reduces the expression of Ki67” and the “Cyclin D1 level” value [15] was “inhibited”. The MET level [16] was “inhibited”, the MYC level [17] was “inhibited” and the XIAP level [18] was “inhibited”. For the same molecule, the beta-catenin level [19] was “inhibited”, the “apoptosis as quantified by Cleaved Caspase 3 staining” value [20] was “increased” and the “MET expression in vivo” value [21] was “downregulated”. The “beta-catenin expression in vivo” value [22] was “downregulated”, the “c-Myc expression in vivo” value [23] was “downregulated” and the “infectious complications, share of patients” value [24] was “approximately 5%”. For the same molecule, the main side effects ([24]; patients) was “hematologic depletion (thrombocytopenia, anemia, and neutropenia) and diarrhea”, the “body mass of mice, treatment vs. control group” value [25] was “no difference in the body mass” and the tumor growth ([25]; PDX50 mice, treatment applied directly into the tumor) was “halting of tumor growth”.
